Assay results reported in US20250228239A1, “MOLECULES HAVING PESTICIDAL UTILITY, AND INTERMEDIATES, COMPOSITIONS, AND PROCESSES, RELATED THERETO” (priority 2024, published 2025).

Columns and labels:
Format in all cases: in vivo
[1] = system: Beet Armyworm (Spodoptera exigua, LAPHEG); experiment: Bioassays on Beet Armyworm (BAW), 128-well diet tray assay; conditions: Spodoptera exigua; Beet Armyworm, Table ABC / ABC-DP rating; read-out: BAW rating
Method in brief: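 Diet-overlay assay: 50 μg/cm^2 compound applied in 90:10 acetone-water to artificial diet, allowed to dry, then infested with 1–5 L2 larvae/well; 8 wells/compound; covered, vented; 25° C., 14:10 L:D, 5–7 d; % mortality per well, averaged.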

[2] = system: Cabbage Looper (Trichoplusia ni, TRIPNI); experiment: Bioassays on Cabbage Looper (CL), 128-well diet tray assay; conditions: Trichoplusia ni; Cabbage Looper, Table ABC / ABC-DP rating; read-out: CL rating
Method in brief: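 Test molecule was dissolved in 90:10 acetone-water, applied to artificial diet at 50 μg/cm^2 and allowed to dry. Second-instar larvae were then added, one to five per well, and trays held at 25° C for five to seven days before mortality was scored and averaged.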

[3] = system: Yellow Fever Mosquito (Aedes aegypti, AEDSAE); conditions: Yellow Fever Mosquito, Table ABC / ABC-DP rating
Method in brief: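 Mortality after 3 days at room temperature is the read-out, scored well by well and converted to a rating. Test molecules came from 4000 ppm stocks in DMSO, further diluted in 90:10 water/acetone, and were exposed to roughly 1-day-old larvae suspended in liver-powder water.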

| Compound | pest or weed control at 50 µg/cm2 [1] | pest or weed control at 50 µg/cm2 [2] | YFM rating [3] |
| --- | --- | --- | --- |
| O=C(NCC(F)(F)F)c1cc(NC(=O)[C@H]2[C@H](c3cc(F)c(Cl)c(Cl)c3)C2(Cl)Cl)ccc1Cl (relative stereo) [F2006, trans-2-Chloro-5-(2,2-dichloro-3-(3,4-dichloro-5-fluorophenyl)cyclopropane-1-carboxamido)-N-(2,2,2-trifluoroethyl)benzamide] | 50 to 100% | 50 to 100% | A (80–100) |
| O=C(NCC(F)(F)F)c1cc(NC(=O)[C@H]2[C@@H](c3cc(F)c(Cl)c(Cl)c3)C2(Cl)Cl)ccc1Cl (relative stereo) [F2007, cis-2-Chloro-5-(2,2-dichloro-3-(3,4-dichloro-5-fluorophenyl)cyclopropane-1-carboxamido)-N-(2,2,2-trifluoroethyl)benzamide] | 50 to 100% | 50 to 100% | A (80–100) |
| O=C(NCC(F)(F)F)c1cc(NC(=O)[C@H]2[C@H](c3cc(Br)cc(S(F)(F)(F)(F)F)c3)C2(Cl)Cl)ccc1Cl (relative stereo) [F2008, trans-5-(3-(3-Bromo-5-(pentafluoro-λ^6-sulfanyl)phenyl)-2,2-dichlorocyclopropane-1-carboxamido)-2-chloro-N-(2,2,2-trifluoroethyl)benzamide] | 50 to 100% | 50 to 100% | A (80–100) |
| O=C(NCC(F)(F)F)c1cc(NC(=O)[C@H]2[C@@H](c3ccc(F)c(Cl)c3F)C2(Cl)Cl)ccc1Cl (relative stereo) [F2010, cis-2-Chloro-5-(2,2-dichloro-3-(3-chloro-2,4-difluorophenyl)cyclopropane-1-carboxamido)-N-(2,2,2-trifluoroethyl)benzamide] | 50 to 100% | 50 to 100% | A (80–100) |
| O=C(NCC(F)(F)F)c1cc(NC(=O)[C@H]2[C@H](c3cc(C(F)(F)F)cc(Cl)c3F)C2(Cl)Cl)ccc1Cl (relative stereo) [F2012, trans-2-Chloro-5-(2,2-dichloro-3-(3-chloro-2-fluoro-5-(trifluoromethyl)phenyl)cyclopropane-1-carboxamido)-N-(2,2,2-trifluoroethyl)benzamide] | 50 to 100% | 50 to 100% | A (80–100) |
| O=C(NCC(F)(F)F)c1cc(NC(=O)[C@H]2[C@@H](c3cc(C(F)(F)F)cc(Cl)c3F)C2(Cl)Cl)ccc1Cl (relative stereo) [F2013, cis-2-Chloro-5-(2,2-dichloro-3-(3-chloro-2-fluoro-5-(trifluoromethyl)phenyl)cyclopropane-1-carboxamido)-N-(2,2,2-trifluoroethyl)benzamide] | 50 to 100% | 50 to 100% | A (80–100) |
| Cc1cc([C@H]2[C@H](C(=O)Nc3ccc(Cl)c(C(=O)NCC(F)(F)F)c3)C2(Cl)Cl)cc(C(F)(F)F)c1F (relative stereo) [F2014, trans-2-Chloro-5-(2,2-dichloro-3-(4-fluoro-3-methyl-5-(trifluoromethyl)phenyl)-cyclopropane-1-carboxamido)-N-(2,2,2-trifluoroethyl)benzamide] | 50 to 100% | 50 to 100% | A (80–100) |
| Cc1cc([C@@H]2[C@H](C(=O)Nc3ccc(Cl)c(C(=O)NCC(F)(F)F)c3)C2(Cl)Cl)cc(C(F)(F)F)c1F (relative stereo) [F2015, cis-2-Chloro-5-(2,2-dichloro-3-(4-fluoro-3-methyl-5-(trifluoromethyl)phenyl)-cyclopropane-1-carboxamido)-N-(2,2,2-trifluoroethyl)benzamide] | 50 to 100% | 50 to 100% | A (80–100) |
| O=C(NCC(F)(F)C(F)(F)F)c1c(F)ccc(NC(=O)[C@H]2[C@H](c3ccc(F)c(Cl)c3)C2(Cl)Cl)c1F (relative stereo) [F2018, trans-3-(2,2-Dichloro-3-(3-chloro-4-fluorophenyl)cyclopropane-1-carboxamido)-2,6-difluoro-N-(2,2,3,3,3-pentafluoropropyl)benzamide] | 50 to 100% | 50 to 100% | A (80–100) |
| CCNC(=O)c1c(Cl)ccc(NC(=O)[C@H]2[C@H](c3ccc(F)c(Cl)c3)C2(Cl)Cl)c1Cl (relative stereo) [F2019, trans-2,6-Dichloro-3-(2,2-dichloro-3-(3-chloro-4-fluorophenyl)cyclopropane-1-carboxamido)-N-ethylbenzamide] | 50 to 100% | 50 to 100% | A (80–100) |
| CCCNC(=O)c1c(Cl)ccc(NC(=O)[C@H]2[C@H](c3ccc(F)c(Cl)c3)C2(Cl)Cl)c1Cl (relative stereo) [F2022, trans-2,6-Dichloro-3-(2,2-dichloro-3-(3-chloro-4-fluorophenyl)cyclopropane-1-carboxamido)-N-propylbenzamide] | 50 to 100% | 50 to 100% | A (80–100) |
| O=C(NCCC(F)(F)F)c1c(F)ccc(NC(=O)[C@H]2[C@H](c3ccc(F)c(Cl)c3)C2(Cl)Cl)c1F (relative stereo) [F2023, trans-3-(2,2-Dichloro-3-(3-chloro-4-fluorophenyl)cyclopropane-1-carboxamido)-2,6-difluoro-N-(3,3,3-trifluoropropyl)benzamide] | 50 to 100% | 50 to 100% | A (80–100) |
| O=C(NCCC(F)(F)F)c1c(Cl)ccc(NC(=O)[C@H]2[C@H](c3ccc(F)c(Cl)c3)C2(Cl)Cl)c1Cl (relative stereo) [F2024, trans-2,6-Dichloro-3-(2,2-dichloro-3-(3-chloro-4-fluorophenyl)cyclopropane-1-carboxamido)-N-(3,3,3-trifluoropropyl)benzamide] | 50 to 100% | 50 to 100% | A (80–100) |
| O=C(NCCCCl)c1c(F)ccc(NC(=O)[C@H]2[C@H](c3ccc(F)c(Cl)c3)C2(Cl)Cl)c1F (relative stereo) [F2028, trans-N-(3-Chloropropyl)-3-(2,2-dichloro-3-(3-chloro-4-fluorophenyl)cyclopropane-1-carboxamido)-2,6-difluorobenzamide] | 50 to 100% | 50 to 100% | A (80–100) |
| CCNC(=O)c1cc(NC(=O)[C@H]2[C@H](c3ccc(F)c(Cl)c3)C2(Cl)Cl)cc(C)c1F (relative stereo) [F2029, trans-5-(2,2-Dichloro-3-(3-chloro-4-fluorophenyl)cyclopropane-1-carboxamido)-N-ethyl-2-fluoro-3-methylbenzamide] | 50 to 100% | 50 to 100% | A (80–100) |
| Cc1cc(NC(=O)[C@H]2[C@H](c3ccc(F)c(Cl)c3)C2(Cl)Cl)cc(C(=O)NCC(F)(F)F)c1F (relative stereo) [F2030, trans-5-(2,2-Dichloro-3-(3-chloro-4-fluorophenyl)cyclopropane-1-carboxamido)-2-fluoro-3-methyl-N-(2,2,2-trifluoroethyl)benzamide] | 50 to 100% | 50 to 100% | A (80–100) |
| Cc1cc(NC(=O)[C@H]2[C@H](c3ccc(F)c(Cl)c3)C2(Cl)Cl)cc(C(=O)NCC(F)(F)C(F)(F)F)c1F (relative stereo) [F2031, trans-5-(2,2-Dichloro-3-(3-chloro-4-fluorophenyl)cyclopropane-1-carboxamido)-2-fluoro-3-methyl-N-(2,2,3,3,3-pentafluoropropyl)benzamide] | 50 to 100% | 50 to 100% | A (80–100) |
| Cc1cc(NC(=O)[C@H]2[C@H](c3ccc(F)c(Cl)c3)C2(Cl)Cl)cc(C(=O)NCCCCl)c1F (relative stereo) [F2032, trans-N-(3-Chloropropyl)-5-(2,2-dichloro-3-(3-chloro-4-fluorophenyl)-cyclopropane-1-carboxamido)-2-fluoro-3-methylbenzamide] | 50 to 100% | 50 to 100% | A (80–100) |
| O=C(NCC(F)(F)C(F)(F)F)c1cc(NC(=O)[C@H]2[C@H](c3ccc(F)c(Cl)c3)C2(Cl)Cl)cc(F)c1Cl (relative stereo) [F2035, trans-2-Chloro-5-(2,2-dichloro-3-(3-chloro-4-fluorophenyl)cyclopropane-1-carboxamido)-3-fluoro-N-(2,2,3,3,3-pentafluoropropyl)benzamide] | 50 to 100% | 50 to 100% | A (80–100) |
| O=C(NCCCCl)c1cc(NC(=O)[C@H]2[C@H](c3ccc(F)c(Cl)c3)C2(Cl)Cl)cc(F)c1Cl (relative stereo) [F2036, trans-2-Chloro-N-(3-chloropropyl)-5-(2,2-dichloro-3-(3-chloro-4-fluorophenyl)cyclopropane-1-carboxamido)-3-fluorobenzamide] | 50 to 100% | 50 to 100% | A (80–100) |
| CCNC(=O)c1cc(NC(=O)[C@H]2[C@H](c3ccc(F)c(Cl)c3)C2(Cl)Cl)cc(C)c1Cl (relative stereo) [F2037, trans-2-Chloro-5-(2,2-dichloro-3-(3-chloro-4-fluorophenyl)cyclopropane-1-carboxamido)-N-ethyl-3-methylbenzamide] | 50 to 100% | 50 to 100% | A (80–100) |
